Patent US12011560B2, “Drug delivery methods and systems” (Morningside Venture Investments Limited, priority 2015, dated 2024)
Where two headings read alike, the source gives them in different places.

Experiments:
[1] = Method: FIGS. 30-32 illustrate different transdermal membrane materials being tested with different solvents and solvent compositions. Solutions of water and different alcohols, including isopropanol, ethanol, and methanol were tested. The water to alcohol content was varied between 0/100 and 100/0 (by v/v) and tested with different membrane materials. For the tests 1.6 mL of solution was injected into the area between the transdermal membrane and the vapor permeable membrane. […] The membranes were observed approximately 90 seconds after providing the solvent solution to the space between the transdermal membrane and the vapor permeable membrane. […] Three different transdermal membrane materials were tested including Celgard® 2400 (FIG. 30), Celgard® 2500 (FIG. 31), and Celgard® 3501 (FIG. 32). Celgard® 2400 has an average pore diameter of about 0.041 μm and a porosity of 41%. Celgard® 2500 has an average pore diameter of about 0.064 μm and a porosity of 55%. Celgard® 3501 has an average pore diameter of about 0.064 μm and a porosity of 55%.
[2] = Wetting and permeation of solvent solutions across the transdermal membrane (FIG. 31); format: physicochemical; conditions: Celgard® 2500; 1.6 mL of solution injected between transdermal membrane and vapor permeable membrane; observed approximately 90 seconds after; v/v

permeation of the solvent solution across the membrane [2] | Compound | permeation of the solvent solution across the membrane [1]
 | O [100% water, water] | no permeation
Some permeation | CO [100% methanol, methanol] | Some permeation
